The values that follow come from paper PMC5695812, “Novel chloroacetamido compound CWR-J02 is an anti-inflammatory glutaredoxin-1 inhibitor” (PLoS ONE, 2017).

One data set addresses Cys22 (UniProt position 23, FIKPTCPYCRR). The note with it: cited from earlier work.
Data set [1] addresses T1, glutaredoxin-1 (Grx1) (Homo sapiens, UniProt P35754).
T1 construct: gene GLRX
T1 sequence (P35754 2-106): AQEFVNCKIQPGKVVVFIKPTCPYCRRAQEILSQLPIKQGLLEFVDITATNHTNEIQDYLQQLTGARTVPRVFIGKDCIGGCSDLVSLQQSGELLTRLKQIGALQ
The experiment in a line: isolated enzyme spectrophotometric assay ([…] min pre-incubation, […] GSH); Kitz-Wilson kinetics; tandem MS of the Cys-22 adduct. The class given is biochemical.

The target in data set [2] is T2, glutaredoxin-1 (Grx1) (Mus musculus, UniProt Q9QUH0).
T2 construct: gene Glrx
T2 sequence (Q9QUH0 2-107): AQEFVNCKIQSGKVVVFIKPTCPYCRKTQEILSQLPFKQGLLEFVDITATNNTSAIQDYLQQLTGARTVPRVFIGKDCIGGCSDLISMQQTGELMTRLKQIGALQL
The data set can be described thus: Grx1 activity in lysates of treated BV2 murine microglia; click-biotin/streptavidin pull-down with MS and western blot. It is filed as cell-based.

For “Glutaredoxin-1 (Grx1, thioltransferase) (Homo sapiens (inferred; species of the isolated enzyme not stated explicitly))”, the pKa in the data set with Cys22 is 3.5. In the case of `C#CCOc1cc(C(=O)NCc2ccc(NC(=O)CCl)cc2)cc(C(=O)OC)c1` [J02, methyl 3-((4-(2-chloroacetamido)benzyl)carbamoyl)-5-(prop-2-yn-1-yloxy) benzoate], the IC50 against glutaredoxin-1 (Grx1) [1] amounted to 32 µM; on glutaredoxin-1 (Grx1) [2] it was 37 µM.

A word on the pKa: it is the pH at which an ionisable group is half protonated. In general, IC50 refers to the point on the concentration scale where inhibition reaches its midpoint. A lower IC50 goes with higher potency.
